Experimental data taken from the supplement of paper PMC10307832.

Legend:
Assay in all cases: relative viability (nuclei count vs DMSO), 5 days (fraction); higher = more cells survive
[1] = compound: COC1=CC(c2cc3ccccc3[nH]2)=N/C1=C\c1[nH]c(C)cc1C [Obatoclax] + O=C(c1cc(Cc2n[nH]c(=O)c3ccccc23)ccc1F)N1CCN(C(=O)C2CC2)CC1 [Olaparib] (partner 8 µM)
Method in brief: (§1)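 Relative viability equals treated-well nuclei counts divided by vehicle-well nuclei counts. Counts came from 4× images of lung cancer cell lines grown in 1536-well plates for 5 days after pin-tool dosing on the day after seeding. Dosing used one drug alone or a fixed anchor-drug dose plus five library-drug doses (not always all listed) in √10 steps, and values are medians of duplicate plates.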

[2] = compound: CC1=CC(=NN1)NC2=CC(=NC(=N2)/C=C/C3=CC=CC=C3)N4CCN(CC4)C + CC1(C)CCC(c2ccc(Cl)cc2)=C(CN2CCN(c3ccc(C(=O)NS(=O)(=O)c4ccc(N[C@H](CCN5CCOCC5)CSc5ccccc5)c(S(=O)(=O)C(F)(F)F)c4)cc3)CC2)C1 [Navitoclax] (partner 0.5 µM)
Method in brief: as §1

[3] = compound: COC1=CC(c2cc3ccccc3[nH]2)=N/C1=C\c1[nH]c(C)cc1C [Obatoclax] + Nc1ncn([C@H]2C[C@H](O)[C@@H](CO)O2)c(=O)n1 [Decitabine] (partner 2 µM)
Method in brief: as §1

[4] = compound: CC1=CC(=NN1)NC2=CC(=NC(=N2)/C=C/C3=CC=CC=C3)N4CCN(CC4)C + COc1cc2c(Oc3ccc(NC(=O)C4(C(=O)Nc5ccc(F)cc5)CC4)cc3F)ccnc2cc1OCCCN1CCOCC1 [Foretinib] (partner 0.25 µM)
Method in brief: as §1

Cell Line | relative viability ([1]; first compound 0.01 µM) | relative viability ([1]; first compound 0.03162 µM) | relative viability ([1]; first compound 0.1 µM) | relative viability ([1]; first compound 0.3162 µM) | relative viability ([1]; first compound 1 µM) | relative viability ([2]; first compound 0.08 µM) | relative viability ([2]; first compound 0.253 µM) | relative viability ([2]; first compound 0.8 µM) | relative viability ([2]; first compound 2.53 µM) | relative viability ([2]; first compound 8 µM) | relative viability ([3]; first compound 0.01 µM) | relative viability ([3]; first compound 0.03162 µM) | relative viability ([3]; first compound 0.1 µM) | relative viability ([3]; first compound 0.3162 µM) | relative viability ([3]; first compound 1 µM) | relative viability ([4]; first compound 0.08 µM) | relative viability ([4]; first compound 0.253 µM) | relative viability ([4]; first compound 0.8 µM) | relative viability ([4]; first compound 2.53 µM) | relative viability ([4]; first compound 8 µM)
NCI-H1793 | 0.869 | 0.833 | 0.939 | 0.784 | 0.783 | 0.516 | 0.446 | 0.466 | 0.156 | 0.131 | 0.578 | 0.47 | 0.519 | 0.421 | 0.415 | 0.349 | 0.663 | 0.329 | 0.121 | 0.112
NCI-H727 | 0.815 | 0.883 | 0.708 | 0.637 | 0.697 | 0.423 | 0.483 | 0.378 | 0.286 | 0.0872 | 0.916 | 0.731 | 0.798 | 0.591 | 0.872 | 0.823 | 0.916 | 0.679 | 0.512 | 0.272
NCI-H838 | 0.747 | 0.79 | 0.792 | 0.577 | 0.255 | 1.22 | 1.22 | 0.866 | 0.305 | 0.134 | 0.471 | 0.412 | 0.511 | 0.338 | 0.32 | 0.99 | 1.14 | 0.965 | 0.798 | 0.131
H3255 | 0.537 | 0.608 | 0.541 | 0.557 | 0.546 | 0.518 | 0.61 | 0.517 | 0.43 | 0.0832 | 0.595 | 0.581 |  | 0.589 | 0.623 | 0.799 | 1.1 | 0.822 | 0.756 | 0.631
EPLC-272H | 0.796 | 0.889 | 0.756 | 0.263 | 0.215 | 1.07 | 1.32 | 0.987 | 0.598 | 0.339 | 0.368 | 0.349 | 0.43 | 0.314 | 0.303 | 0.639 | 0.708 | 0.4 | 0.171 | 0.0935
NCI-H647 | 0.633 | 0.539 | 0.547 | 0.174 | 0.067 | 1.05 | 1.38 | 1.07 | 0.0912 | 0.0329 | 0.422 | 0.27 | 0.438 | 0.3 | 0.112 | 1.14 | 1.23 | 1.27 | 0.8 | 0.104
LXF-289 | 1.05 | 1.1 | 0.972 | 1.09 | 1 | 0.924 | 0.966 | 0.922 | 0.772 | 0.325 | 0.346 | 0.385 | 0.372 | 0.342 | 0.408 | 0.996 | 1.02 | 0.873 | 0.812 | 0.194
NCI-H1650 | 0.764 | 0.742 | 0.774 | 0.539 | 0.229 | 1.28 | 1.43 | 0.902 | 0.358 | 0.107 | 0.457 | 0.352 | 0.47 | 0.268 | 0.267 | 1.07 | 1.4 | 1.33 | 0.153 | 0.133
NCI-H1755 | 0.873 | 0.901 | 0.868 | 0.787 | 0.839 | 0.984 | 0.98 | 0.974 | 0.504 | 0.155 | 0.684 | 0.617 | 0.697 | 0.655 | 0.662 | 0.9 | 0.962 | 0.866 | 0.622 | 0.297
HCC-15 | 0.734 | 0.769 | 0.694 | 0.763 | 0.704 | 0.67 | 0.731 | 0.612 | 0.409 | 0.118 | 0.678 | 0.568 | 0.509 | 0.615 | 0.434 | 1.06 | 1.11 | 0.839 | 0.196 | 0.0908
EMC-BAC-2 | 0.491 | 0.514 | 0.418 | 0.478 | 0.43 | 1.1 | 1.11 | 1.07 | 0.719 | 0.266 | 0.95 | 0.977 |  | 0.98 | 0.541 | 0.957 | 1.04 | 0.936 | 0.534 | 0.234
NCI-H1734 | 0.609 | 0.624 | 0.601 | 0.546 | 0.505 | 0.837 | 0.81 | 0.8 | 0.331 | 0.108 | 0.504 | 0.467 | 0.511 | 0.491 | 0.506 | 0.816 | 0.828 | 0.815 | 0.447 | 0.161
NCI-H1395 | 0.454 | 0.418 | 0.444 | 0.529 | 0.332 | 1.32 | 1.27 | 1.59 | 0.676 | 0.308 | 0.716 | 0.735 | 0.754 | 0.695 | 0.513 | 1.11 | 1.11 | 0.93 | 0.663 | 0.347
